# Data taken from ChEMBL document CHEMBL4334435, “A focused structure-activity relationship study of psoralen-based immunoproteasome inhibitors” (Medchemcomm, 2019).
# Active and inactive are the calls of the source. The rule behind the calls is not given here.
# Key:
# [1] = system: PBMC; test: Inhibition of LPS-induced IL-8 production in human PBMC at 50 nM preincubated for 1 hr followed by LPS addition and measured after 24 hrs by cytometric bead array-based FACS analysis; type: functional, cell-based
# [2] = target: T1, Proteasome subunit beta type-8 (Homo sapiens) (UniProt P28062); test: Reversible inhibition of human immunoproteasome beta 5i subunit assessed as recovery of enzyme activity at 45 nM using Suc-LLVY-AMC as substrate preincubated for 30 mins followed by 100-fold diluted substrate addition by rapid dilution assay relative to control; design: scale not given: the % may be the effect or the level left
# T1 sequence (whole entry): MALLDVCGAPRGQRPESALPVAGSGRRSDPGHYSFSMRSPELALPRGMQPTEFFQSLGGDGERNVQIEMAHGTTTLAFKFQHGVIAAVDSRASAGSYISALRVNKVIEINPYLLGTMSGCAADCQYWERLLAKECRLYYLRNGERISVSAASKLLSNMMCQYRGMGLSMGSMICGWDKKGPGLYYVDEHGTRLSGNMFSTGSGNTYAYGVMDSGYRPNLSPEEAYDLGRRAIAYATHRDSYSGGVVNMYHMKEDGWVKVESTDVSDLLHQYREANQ
# [3] = system: PBMC; test: Inhibition of LPS-induced IL-10 secretion in human PBMC at 50 nM preincubated for 1 hr followed by LPS addition and measured after 24 hrs by cytometric bead array-based FACS analysis; type: functional, cell-based
# [4] = system: PBMC; test: Inhibition of LPS-induced IL-6 secretion in human PBMC at 50 nM preincubated for 1 hr followed by LPS addition and measured after 24 hrs by cytometric bead array-based FACS analysis; type: functional, cell-based
# [5] = system: PBMC; test: Inhibition of LPS-induced TNFalpha production in human PBMC at 50 nM preincubated for 1 hr followed by LPS addition and measured after 24 hrs by cytometric bead array-based FACS analysis; type: functional, cell-based
# [6] = system: PBMC; test: Inhibition of LPS-induced IL-12p70 production in human PBMC at 50 nM preincubated for 1 hr followed by LPS addition and measured after 24 hrs by cytometric bead array-based FACS analysis; type: functional, cell-based
# [7] = system: PBMC; test: Inhibition of LPS-induced IL-1beta production in human PBMC at 50 nM preincubated for 1 hr followed by LPS addition and measured after 24 hrs by cytometric bead array-based FACS analysis; type: functional, cell-based
structure (smiles),measurement,setting,value
CC(C)(C)ONC(=O)C[C@H](NC(=O)CCc1ccccc1)C(=O)N[C@@H](Cc1ccc(F)cc1)C(=O)NCc1cccc2ccccc12,inhibition,[1],inactive
same,Activity,[2],100%
same,inhibition,[3],Active
same,inhibition,[4],Active
same,inhibition,[5],inactive
same,inhibition,[6],inactive
same,inhibition,[7],inactive
